ChEMBL document CHEMBL5113512, “β-Nitrostyrene derivatives as broad range potential antifungal agents targeting fungal cell wall” (2022)
≈ marks a conversion by molar mass, not a printed value.

Assays:
Format in all cases: functional
Candida albicans [1] = experiment: Antifungal activity against Candida albicans SN152 harboring CAS5 mutant assessed as inhibition of fungal growth by broth microdilution method
Candida albicans [2] = experiment: Antifungal activity against wild type Candida albicans SN152 assessed as inhibition of fungal growth by broth microdilution method
[Candida] auris [3] = Antifungal activity against Candida auris 118 assessed as inhibition of fungal growth by broth microdilution method; conditions: Candidozyma auris
Candida albicans [4] = experiment: Antifungal activity against Candida albicans ATCC 24433 overexpressing transporter protein F5 assessed as inhibition of fungal growth by broth microdilution method
Candida albicans [5] = experiment: Synergistic antifungal activity against Candida albicans ATCC 24433 overexpressing ADPDR5-G assessed as fractional inhibitory concentration index incubated for 48 hrs in presence of caspofungin by checker board assay
Candida albicans [6] = experiment: Synergistic antifungal activity against Candida albicans ATCC 24433 overexpressing ADCDR1-GFP assessed as fractional inhibitory concentration index incubated for 48 hrs in presence of caspofungin by checker board assay
Candida albicans [7] = experiment: Antifungal activity against Candida albicans ATCC 24433 overexpressing AD(1-8)u-assessed as inhibition of fungal growth by broth microdilution method
Candida albicans [8] = experiment: Antifungal activity against Candida albicans ATCC 24433 assessed as inhibition of fungal growth by broth microdilution method
Nakaseomyces glabratus = experiment: Antifungal activity against Candida glabrata ATCC 2001 assessed as inhibition of fungal growth by broth microdilution method
Candida albicans [9] = experiment: Antifungal activity against Candida albicans ATCC 24433 overexpressing transporter protein GU5 assessed as inhibition of fungal growth by broth microdilution method
Candida albicans [10] = experiment: Antifungal activity against Candida albicans ATCC 24433 overexpressing ADCaMDR1-GFP assessed as inhibition of fungal growth by broth microdilution method
Candida albicans [11] = experiment: Antifungal activity against Candida albicans ATCC 24433 overexpressing ADCDR1-GFP assessed as inhibition of fungal growth by broth microdilution method
Candida albicans [12] = experiment: Antifungal activity against Candida albicans ATCC 24433 overexpressing transporter protein F2 assessed as inhibition of fungal growth by broth microdilution method
Candida albicans [13] = experiment: Synergistic antifungal activity against Candida albicans ATCC 24433 overexpressing ADCaMDR1-GFP assessed as fractional inhibitory concentration index incubated for 48 hrs in presence of caspofungin by checker board assay
Candida parapsilosis = experiment: Antifungal activity against Candida parapsilosis ATCC 90018 assessed as inhibition of fungal growth by broth microdilution method; conditions: Lodderomyces parapsilosis
Candida albicans [14] = experiment: Antifungal activity against Candida albicans ATCC 24433 overexpressing ADPDR5-GFP assessed as inhibition of fungal growth by broth microdilution method
[Candida] auris [15] = Antifungal activity against wild type Candida auris 102 assessed as inhibition of fungal growth by broth microdilution method; conditions: Candidozyma auris
[Candida] auris [16] = Antifungal activity against Candida auris 102 assessed as inhibition of fungal growth by broth microdilution method; conditions: Candidozyma auris
Candida albicans [17] = experiment: Antifungal activity against Candida albicans ATCC 24433 overexpressing transporter protein GU4 assessed as inhibition of fungal growth by broth microdilution method
[Candida] auris [18] = Antifungal activity against Candida auris 105 assessed as inhibition of fungal growth by broth microdilution method; conditions: Candidozyma auris
Candida tropicalis = experiment: Antifungal activity against Candida tropicalis ATCC 750 assessed as inhibition of fungal growth by broth microdilution method
Candida albicans [19] = experiment: Synergistic antifungal activity against Candida albicans ATCC 24433 assessed as fractional inhibitory concentration index incubated for 48 hrs in presence of caspofungin by checker board assay

| Compound | MIC80 (Candida albicans [1]) | MIC80 ([Candida] auris [3]) | MIC80 (Candida albicans [4]) | fractional inhibitory concentration index (FICI) (Candida albicans [5]) | fractional inhibitory concentration index (FICI) (Candida albicans [6]) | MIC80 (Candida albicans [7]) | MIC80 (Candida albicans [8]) | MIC80 (Nakaseomyces glabratus) | MIC80 (Candida albicans [9]) | MIC80 (Candida albicans [10]) | MIC80 (Candida albicans [11]) | MIC80 (Candida albicans [12]) | fractional inhibitory concentration index (FICI) (Candida albicans [13]) | MIC80 (Candida parapsilosis) | MIC80 (Candida albicans [14]) | MIC80 ([Candida] auris [15]) | MIC80 ([Candida] auris [16]) | MIC80 (Candida albicans [17]) | MIC80 ([Candida] auris [18]) | MIC80 (Candida tropicalis) | other results |
| --- | --- | --- | --- | --- | --- | --- | --- | --- | --- | --- | --- | --- | --- | --- | --- | --- | --- | --- | --- | --- | --- |
| C[C@@H]1[C@H](O)[C@@H](C)/C=C/C=C/C=C/C=C/C=C/C=C/C=C/[C@H](O[C@@H]2O[C@H](C)[C@@H](O)[C@H](N)[C@@H]2O)C[C@@H]2O[C@](O)(C[C@@H](O)C[C@@H](O)[C@H](O)CC[C@@H](O)C[C@@H](O)CC(=O)O[C@H]1C)C[C@H](O)[C@H]2C(=O)O [AMPHOTERICIN B] | 0.5 µg/mL (≈ 0.541 µM) |  |  |  |  |  |  |  |  |  |  |  |  |  |  |  |  |  |  |  | MIC80 (Candida albicans [2]): 0.5 µg/mL (≈ 0.541 µM) |
| O=[N+]([O-])/C=C/c1cccc(O)c1 | 8 µg/mL (≈ 48.4 µM) | 8 µg/mL (≈ 48.4 µM) | 8 µg/mL (≈ 48.4 µM) | <0.5 | <0.5 | 16 µg/mL (≈ 96.9 µM) | 16 µg/mL (≈ 96.9 µM) | 16 µg/mL (≈ 96.9 µM) | 16 µg/mL (≈ 96.9 µM) | 4 µg/mL (≈ 24.2 µM) | 16 µg/mL (≈ 96.9 µM) | 16 µg/mL (≈ 96.9 µM) | <0.5 | 16 µg/mL (≈ 96.9 µM) | 4 µg/mL (≈ 24.2 µM) | 8 µg/mL (≈ 48.4 µM) | 8 µg/mL (≈ 48.4 µM) | 32 µg/mL (≈ 194 µM) | 8 µg/mL (≈ 48.4 µM) | > 32 µg/mL | MIC80 (Candida albicans [2]): 16 µg/mL (≈ 96.9 µM) |
| CC/C(=C\c1ccc(OC)c(OC)c1)[N+](=O)[O-] |  | 8 µg/mL (≈ 33.7 µM) | 8 µg/mL (≈ 33.7 µM) | <0.5 | <0.5 | 16 µg/mL (≈ 67.4 µM) | 16 µg/mL (≈ 67.4 µM) | 32 µg/mL (≈ 135 µM) | 8 µg/mL (≈ 33.7 µM) | 8 µg/mL (≈ 33.7 µM) | 32 µg/mL (≈ 135 µM) | 8 µg/mL (≈ 33.7 µM) | <0.5 | 32 µg/mL (≈ 135 µM) | 8 µg/mL (≈ 33.7 µM) | 8 µg/mL (≈ 33.7 µM) | 8 µg/mL (≈ 33.7 µM) | 16 µg/mL (≈ 67.4 µM) | 8 µg/mL (≈ 33.7 µM) | 16 µg/mL (≈ 67.4 µM) |  |
| COc1ccc(/C=C(\C)[N+](=O)[O-])cc1 |  | 4 µg/mL (≈ 20.7 µM) | 2 µg/mL (≈ 10.4 µM) | <0.5 | <0.5 | 4 µg/mL (≈ 20.7 µM) | 8 µg/mL (≈ 41.4 µM) | 4 µg/mL (≈ 20.7 µM) | 4 µg/mL (≈ 20.7 µM) | 4 µg/mL (≈ 20.7 µM) | 8 µg/mL (≈ 41.4 µM) | 2 µg/mL (≈ 10.4 µM) | <0.5 | 16 µg/mL (≈ 82.8 µM) | 4 µg/mL (≈ 20.7 µM) | 2 µg/mL (≈ 10.4 µM) | 4 µg/mL (≈ 20.7 µM) | 4 µg/mL (≈ 20.7 µM) | 2 µg/mL (≈ 10.4 µM) | 4 µg/mL (≈ 20.7 µM) | fractional inhibitory concentration index (FICI) (Candida albicans [19]): <1.5 |
| C/C(=C\c1ccc(N(C)C)cc1)[N+](=O)[O-] |  | 8 µg/mL (≈ 38.8 µM) | 16 µg/mL (≈ 77.6 µM) |  |  | 16 µg/mL (≈ 77.6 µM) | 16 µg/mL (≈ 77.6 µM) | 32 µg/mL (≈ 155 µM) | 16 µg/mL (≈ 77.6 µM) | 8 µg/mL (≈ 38.8 µM) | 32 µg/mL (≈ 155 µM) | 16 µg/mL (≈ 77.6 µM) |  | 32 µg/mL (≈ 155 µM) | 16 µg/mL (≈ 77.6 µM) | 8 µg/mL (≈ 38.8 µM) | 8 µg/mL (≈ 38.8 µM) | 16 µg/mL (≈ 77.6 µM) | 8 µg/mL (≈ 38.8 µM) | 16 µg/mL (≈ 77.6 µM) |  |
